Experimental data reported in patent publication US5622962A, “5α-reductase inhibitors” (priority 1995, dated 1997).

How the values were obtained:
[1] = target: T1, Type I 5α-Reductase from Human Scalp (Homo sapiens, UniProt P18405); assay: Human Type I 5α-reductase assay (conversion of [3H]-testosterone to 5α-reduced metabolites); assay type: biochemical; conditions: pH 7.5, 0.3 μM; 50 nM [3H]-testosterone, pH 7.5, 25°, 180 min; compared to control reaction mixtures; read-out: percent inhibition of Type I AR
T1 construct: Scalp punch biopsies from graft recipient sites were obtained from human hair transplant procedures; from tissue; host or cells: human scalp punch biopsies (hair transplant graft recipient sites), homogenate, 100,000×g pellet
T1 sequence (P18405 1-259): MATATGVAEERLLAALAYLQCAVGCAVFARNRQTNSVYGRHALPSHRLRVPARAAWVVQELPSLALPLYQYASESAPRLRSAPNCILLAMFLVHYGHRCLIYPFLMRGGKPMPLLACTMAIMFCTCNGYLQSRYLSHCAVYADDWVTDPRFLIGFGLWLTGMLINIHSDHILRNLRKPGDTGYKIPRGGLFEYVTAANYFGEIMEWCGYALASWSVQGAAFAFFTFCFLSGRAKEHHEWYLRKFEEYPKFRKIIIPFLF

[2] = target: T2, Type II 5α-Reductase from Human Prostate (Homo sapiens, UniProt P31213); assay: Human Type II 5α-reductase assay (conversion of [3H]-testosterone to 5α-reduced metabolites); assay type: biochemical; conditions: pH 5.5, 0.3 μM; sodium acetate pH 5.5, 25°, 30 min; compared to control reaction mixtures; read-out: percent inhibition of Type II AR
T2 construct: The same procedure as above was used for preparations using tissue from prostate surgery; from tissue; host or cells: human prostate tissue from surgery, homogenate, 100,000×g pellet
T2 sequence (P31213 1-254): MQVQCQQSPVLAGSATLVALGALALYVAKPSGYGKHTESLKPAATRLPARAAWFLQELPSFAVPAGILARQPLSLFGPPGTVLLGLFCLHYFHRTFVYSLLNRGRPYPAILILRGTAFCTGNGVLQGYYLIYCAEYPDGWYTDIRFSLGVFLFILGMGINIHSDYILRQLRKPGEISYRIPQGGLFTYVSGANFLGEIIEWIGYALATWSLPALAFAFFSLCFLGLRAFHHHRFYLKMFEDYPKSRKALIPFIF

Structure (SMILES)	inhibition at 0.3 µM [1]	inhibition at 0.3 µM [2]
CN1C(=O)CC[C@]2(C)c3ccc(-c4ccc(COc5ccc(F)cc5)s4)cc3CC[C@@H]12 [Example 129, (+)-(4aR)-(10bR)-4-methyl-8-(2-[5-(4-fluorophenoxy-methyl)thienyl])-10b-methyl-1,2,3,4,4a,5,6,10b-octahydrobenzo[f]-quinolin-3-one]	91%	36%
C[C@]12CCC(=O)N[C@@H]1CCc1cc(Sc3ccc(F)cc3)ccc12 [Example 14, (+)-(4aR)-(10bR)-8-(4-fluorophenylthio)-10b-methyl-1,2,3,4,4a,5,6,10b-octahydrobenzo[f]quinolin-3-one]	37%	25%
CN1C(=O)CC[C@]2(C)c3ccc(-c4ccc(-c5ccccc5)cc4)cc3CC[C@@H]12 [Example 84, (+)-(4aR)-(10bR)-4-methyl-8-(4-biphenyl)-10b-methyl-1,2,3,4,4a,5,6,10b-octahydrobenzo[f]quinolin-3-one]	88%	23%
CN1C(=O)CC[C@]2(C)c3ccc(CSc4ccccc4)cc3CC[C@@H]12 [Example 137, (4aR)-(10bR)-8-phenylthiomethyl-4,10b-dimethyl-1,2,3,4,4a,5,6,10b-octahydrobenzo[f]quinolin-3-one]	90%	37%
C[C@]12CCC(=O)N[C@@H]1CCc1cc(CSc3ccccc3)ccc12 [Example 289, (4aR)-(10bR)-8-phenylthiomethyl-10b-methyl-1,2,3,4,4a,5,6,10b-octahydrobenzo[f]quinolin-3-one]	23%	24%
CN1C(=O)CC[C@]2(C)c3ccc(-c4ccc(O)c(C=O)c4)cc3CC[C@@H]12 [Example 58, (+)-(4aR)-(10bR)-4-methyl-8-(3-formyl-4-hydroxyphenyl)-10b-methyl-1,2,3,4,4a,5,6,10b-octahydrobenzo[f]quinolin-3-one]	65%	24%
CN1C(=O)CC[C@]2(C)c3ccc(-c4ccc5ncccc5c4)cc3CC[C@@H]12 [Example 244, (+)-(4aR)-(10bR)-4-methyl-8-(6-quinolinyl)-10b-methyl-1,2,3,4,4a,5,6,10b-octahydrobenzo[f]quinolin-3-one]	51%	32%

Other lines, results leading:

inhibition at 0.3 µM [1]	inhibition at 0.3 µM [2]	Structure (SMILES)
66%	51%	CN1C(=O)CC[C@]2(C)c3ccc(-c4cccc([N+](=O)[O-])c4)cc3CC[C@@H]12 [Example 86, (+)-(4aR)-(10bR)-4-methyl-8-(3-nitrophenyl)-10b-methyl-1,2,3,4,4a,5,6,10b-octahydrobenzo[f]quinolin-3-one]
31%	37%	CCCN(CC1CC1)c1ccc(-c2ccc3c(c2)CC[C@H]2N(C)C(=O)CC[C@]32C)c2ccccc12 [Example 68, (+)-(4aR)-(10bR)-4-methyl-8-(4-[N-propyl,N-cyclopropylmethylamino]-1-naphthyl)-10b-methyl-1,2,3,4,4a,5,6,10b-octahydrobenzo[f]quinolin-3-one]
97%	25%	CN1C(=O)CC[C@]2(C)c3ccc(Sc4cccc(F)c4)cc3CC[C@@H]12 [Example 109, (+)-(4aR)-(10bR)-4,10b-dimethyl-8-(3-fluorophenylthio)-1,2,3,4,4a,5,6,10b-octahydrobenzo[f]quinolin-3-one]
47%	32%	CCCN(CCC)[C@@H]1Cc2cc(-c3ccc4c(c3)CC[C@H]3N(C)C(=O)CC[C@]43C)cc3c2[C@@H](C1)CN3C(=O)c1ccccc1 [Example 225, (+)-(4aR)-(10bR)-4-methyl-8-(2aR,4S-1-benzoyl-4-dipropylamino-2,2a,3,4-tetrahydrobenz[cd]-1H-indol-7-yl)-10b-methyl-1,2,3,4,4a,5,6,10b-octahydrobenzo[f]quinolin-3-one]
